Test results taken from US20040110825A1, “Method for treating sepsis” (priority 2003, published 2004).
Blank lines part the entries; values can stand above or below the molecule they belong to.

How the values were obtained:
[1] = system: patients with severe sepsis; assay: Phase 2 multicenter, double-blind, placebo-controlled trial: 28-day all-cause mortality; format: in vivo, human; conditions: for effect on mortality compared to placebo: administration started within 24 hours after first organ failure, continued up to 7 days
Description: FIG. 3 represents a plot of 28-day mortality by treatment (Y-axis) against time after first organ failure at which a sPLA2 inhibitor compound of formula I was administered (X-axis). […] Administration of a “high dose” of sPLA2 inhibitor compound of formula (I), at the same time frame (i.e., less than 12 hours after first organ failure) was associated with a mortality of 5.4% (bar 3). […] The efficacy of a sPLA2 inhibitor administered at 0-24 hours, preferably 0-12 hours, after first organ failure is particularly significant when a “high dose” sPLA2 inhibitor compound is administered.
The data were analyzed using the Cochran-Mantel-Haenszel test adjusted for the trial primary stratification factors at a two-sided 5% significance level. The overall treatment effect as well as for pair-wise comparisons were analyzed.
Study participants were included in the study if they met all of the criteria listed below. It is anticipated that almost all patients meeting these criteria would have been in an acute care area of the hospital such as an intensive care unit, step-down unit, emergency ward, or recovery room. The events satisfying these inclusion criteria must have been attributable to the onset of sepsis and not attributable to an underlying disease process or to the effects of concomitant therapy.
[3] Have had at least one of the following sepsis-induced organ failures within the 24-hour time period immediately preceding entry into the study:
The mortality data from the study are shown in diagrams 1 through 3.

- melting point: 199 to 200 °C
Structure (SMILES): NC(=O)C1CCCc2c1c1cc(OCCCC(=O)O)ccc1n2Cc1ccccc1 (stereo not shown)

- melting point: 154 to 156 °C
Structure (SMILES): COc1ccc2c(c1)c1c(n2Cc2ccccc2)CCCC1C(N)=O (stereo not shown)

- melting point: 200 to 201 °C
Structure (SMILES): NC(=O)C1CCCc2c1c1cc(OCCCP(=O)(O)O)ccc1n2Cc1ccccc1 (stereo not shown)

- melting point: 235 to 238 °C (dec.)
Structure (SMILES): CCc1cc2c(cc1OCCCP(=O)(O)O)c1c(n2Cc2ccccc2)CCCC1C(N)=O (stereo not shown)

Continued, molecule first:

Structure (SMILES): CCCCCCCCc1cc2c(cc1OCCCP(=O)(O)O)c1c(n2Cc2ccccc2)CCCC1C(N)=O (stereo not shown)
- melting point: 160 to 162 °C

Structure (SMILES): COc1cc(OC)c2c3c(n(Cc4ccccc4)c2c1)CCCC3C(=O)NN (stereo not shown)
- melting point: 189 to 190 °C

Structure (SMILES): CCc1c(C(=O)C(N)=O)c2c(OCC(=O)O)cccc2n1Cc1ccccc1 [compound (Vb)]
- effect on mortality compared to placebo [1]: significant reduction in mortality
- effect on mortality compared to placebo ([1]; listed as LY315920): statistically significant reduction in mortality
- 28 day mortality by treatment ([1]; high dose (target 800 ng/mL), administered between 12 and 24 hours after first organ failure, FIG. 3 bar 6, placebo 35.1%): 31.5%
- 28 day mortality by treatment ([1]; high dose (target plasma concentration 800 ng/mL), administered less than 12 hours after first organ failure, FIG. 3 bar 3, placebo 42.9%): 5.4%
- 28 day mortality by treatment ([1]; low dose (target 200 ng/mL), administered between 12 and 24 hours after first organ failure, FIG. 3 bar 5, placebo 35.1%): 38.2%
- 28 day mortality by treatment ([1]; low dose (target plasma concentration 200 ng/mL), administered less than 12 hours after first organ failure, FIG. 3 bar 2, placebo 42.9%): 19.2%
- reduction in mortality, significance ([1]; low dose and high dose administered at 0-12 hours after first organ failure, Cochran-Mantel-Haenszel test, two-sided 5%): statistically significant
